# From patent US9656988B2 (Pharmacyclics LLC, priority 2013, dated 2017)
# Where two headings read alike, the source gives them in different places.
# Target: BTK (Homo sapiens (Human), UniProt Q06187)
# Experiment: Btk in vitro inhibitory activity (one of Method A TR-FRET, Method B electrophoretic mobility shift, Method C radiometric filter binding)
# Type: biochemical
# [1] = determined using one of the methods of Example 355a, 355b and 355c, read-out: BTK IC50
# Sequence of BTK (Q06187 whole entry): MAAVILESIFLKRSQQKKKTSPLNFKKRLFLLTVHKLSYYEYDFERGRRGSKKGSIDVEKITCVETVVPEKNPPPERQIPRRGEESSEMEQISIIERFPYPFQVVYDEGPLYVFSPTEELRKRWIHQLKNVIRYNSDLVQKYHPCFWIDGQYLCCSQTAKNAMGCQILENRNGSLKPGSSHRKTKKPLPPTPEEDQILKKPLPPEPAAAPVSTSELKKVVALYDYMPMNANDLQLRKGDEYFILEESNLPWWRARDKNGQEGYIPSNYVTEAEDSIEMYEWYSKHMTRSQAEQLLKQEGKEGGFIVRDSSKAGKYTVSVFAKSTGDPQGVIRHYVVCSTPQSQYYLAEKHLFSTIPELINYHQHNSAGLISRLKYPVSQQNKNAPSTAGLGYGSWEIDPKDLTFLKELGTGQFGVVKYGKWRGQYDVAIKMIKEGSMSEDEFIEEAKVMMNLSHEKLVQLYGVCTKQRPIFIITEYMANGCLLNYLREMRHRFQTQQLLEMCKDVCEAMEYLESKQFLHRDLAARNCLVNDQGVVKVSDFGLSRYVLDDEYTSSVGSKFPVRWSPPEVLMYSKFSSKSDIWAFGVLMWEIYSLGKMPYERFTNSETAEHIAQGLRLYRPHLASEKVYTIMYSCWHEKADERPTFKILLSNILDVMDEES
IC50 [1] [nM],Compound,IC50 [nM]
10 to 100,"NC(=O)c1nnc(N2CCC[C@@H](N3CCCC3=O)C2)nc1Nc1ccc(C(=O)N2CCOCC2)cc1 [Example 44, (R)-5-(4-(morpholine-4-carbonyl)phenylamino)-3-(3-(2-oxopyrrolidin-1-yl)piperidin-1-yl)-1,2,4-triazine-6-carboxamide]",
100 to 1000,"NC(=O)c1nnc(N2CCC[C@@H](Oc3nccc4ccccc34)C2)nc1Nc1ccc(C(=O)N2CCOCC2)cc1 [Example 45, (R)-3-(3-(isoquinolin-1-yloxy)piperidin-1-yl)-5-(4-(morpholine-4-carbonyl)phenylamino)-1,2,4-triazine-6-carboxamide]",
10 to 100,"CC(C)OC(=O)NN(C(=O)OC(C)C)[C@@H]1CCCN(c2nnc(C(N)=O)c(Nc3ccc(C(=O)N4CCOCC4)cc3)n2)C1 [Example 46, (R)-diisopropyl 1-(1-(6-carbamoyl-5-(4-(morpholine-4-carbonyl)phenylamino)-1,2,4-triazin-3-yl)piperidin-3-yl)hydrazine-1,2-dicarboxylate]",
100 to 1000,"CC(C)(C)c1ccc(C(=O)N[C@@H]2CCN(c3nnc(C(N)=O)c(Nc4ccc(C(=O)N5CCOCC5)cc4)n3)C2)cc1 [Example 49, (R)-3-(3-(4-tert-butylbenzamido)pyrrolidin-1-yl)-5-(4-(morpholine-4-carbonyl)phenylamino)-1,2,4-triazine-6-carboxamide]",
100 to 1000,"NC(=O)c1nnc(N2CC[C@@H](NC(=O)c3ccccc3)C2)nc1Nc1ccc(C(=O)N2CCOCC2)cc1 [Example 50, (R)-3-(3-benzamidopyrrolidin-1-yl)-5-(4-(morpholine-4-carbonyl)phenylamino)-1,2,4-triazine-6-carboxamide]",
100 to 1000,"NC(=O)c1nnc(N2CC[C@@H](NC(=O)C(F)(F)F)C2)nc1Nc1ccc(C(=O)N2CCOCC2)cc1 [Example 51, (R)-5-(4-(morpholine-4-carbonyl)phenylamino)-3-(3-(2,2,2-trifluoroacetamido)pyrrolidin-1-yl)-1,2,4-triazine-6-carboxamide]",
100 to 1000,"CC(C)(C)c1ccc(C(=O)N[C@@H]2CCCN(c3nnc(C(N)=O)c(Nc4cncc(F)c4)n3)C2)cc1 [Example 52, (R)-3-(3-(4-tert-butylbenzamido)piperidin-1-yl)-5-(5-fluoropyridin-3-ylamino)-1,2,4-triazine-6-carboxamide]",
1000 to 10000,"Cc1ccc(Nc2nc(N3CCC[C@@H](NC(=O)c4ccc(C(C)(C)C)cc4)C3)nnc2C(N)=O)cc1 [Example 53, (R)-3-(3-(4-tert-butylbenzamido)piperidin-1-yl)-5-(p-tolylamino)-1,2,4-triazine-6-carboxamide]",
1000 to 10000,"Cc1cccc(Nc2nc(N3CCC[C@@H](NC(=O)c4ccc(C(C)(C)C)cc4)C3)nnc2C(N)=O)c1 [Example 54, (R)-3-(3-(4-tert-butylbenzamido)piperidin-1-yl)-5-(m-tolylamino)-1,2,4-triazine-6-carboxamide]",
100 to 1000,"CC(C)(C)c1ccc(C(=O)N[C@@H]2CCCN(c3nnc(C(N)=O)c(Nc4ccc(-c5ncccn5)cc4)n3)C2)cc1 [Example 56, (R)-3-(3-(4-tert-butylbenzamido)piperidin-1-yl)-5-(4-(pyrimidin-2-yl)phenylamino)-1,2,4-triazine-6-carboxamide]",
100 to 1000,"CC(C)(C)c1ccc(C(=O)N[C@@H]2CCCN(c3nnc(C(N)=O)c(Nc4cccc(-c5ncccn5)c4)n3)C2)cc1 [Example 57, (R)-3-(3-(4-tert-butylbenzamido)piperidin-1-yl)-5-(3-(pyrimidin-2-yl)phenylamino)-1,2,4-triazine-6-carboxamide]",
10 to 100,"CC(C)(C)c1ccc(C(=O)N[C@@H]2CCCN(c3nnc(C(N)=O)c(Nc4ccc(-c5ncco5)cc4)n3)C2)cc1 [Example 58, (R)-3-(3-(4-tert-butylbenzamido)piperidin-1-yl)-5-(4-(oxazol-2-yl)phenylamino)-1,2,4-triazine-6-carboxamide]",

# More lines, now with the values behind:
Compound,IC50 [1] [nM],IC50 [nM]
"NC(=O)c1nnc(N2CCC[C@@H](NC(=O)C3CCN(C4CC4)CC3)C2)nc1Nc1ccc(C(=O)N2CCOCC2)cc1 [Example 32, (R)-3-(3-(1-cyclopropylpiperidine-4-carboxamido)piperidin-1-yl)-5-(4-(morpholine-4-carbonyl)phenylamino)-1,2,4-triazine-6-carboxamide]",10 to 100,
"NC(=O)c1nnc(N2CCC[C@@H](NC(=O)C3CCN(C4CCCC4)CC3)C2)nc1Nc1ccc(C(=O)N2CCOCC2)cc1 [Example 33, (R)-3-(3-(1-cyclopentylpiperidine-4-carboxamido)piperidin-1-yl)-5-(4-(morpholine-4-carbonyl)phenylamino)-1,2,4-triazine-6-carboxamide]",10 to 100,
"NC(=O)c1nnc(N2CCC[C@@H](NC(=O)N3CCCC3)C2)nc1Nc1ccc(C(=O)N2CCOCC2)cc1 [Example 35, (R)-5-(4-(morpholine-4-carbonyl)phenylamino)-3-(3-(pyrrolidine-1-carboxamido)piperidin-1-yl)-1,2,4-triazine-6-carboxamide]",10 to 100,
"NC(=O)c1nnc(N2CCC[C@@H](NC(=O)N3CCC(N4CCCCC4)CC3)C2)nc1Nc1ccc(C(=O)N2CCOCC2)cc1 [Example 37, (R)—N-(1-(6-carbamoyl-5-(4-(morpholine-4-carbonyl)phenylamino)-1,2,4-triazin-3-yl)piperidin-3-yl)-1,4′-bipiperidine-1′-carboxamide]",10 to 100,
"NC(=O)c1nnc(N2CCC[C@@H](NC(=O)N3CCOCC3)C2)nc1Nc1ccc(C(=O)N2CCOCC2)cc1 [Example 38, (R)—N-(1-(6-carbamoyl-5-(4-(morpholine-4-carbonyl)phenylamino)-1,2,4-triazin-3-yl)piperidin-3-yl)morpholine-4-carboxamide]",10 to 100,
"CN(C(=O)N[C@@H]1CCCN(c2nnc(C(N)=O)c(Nc3ccc(C(=O)N4CCOCC4)cc3)n2)C1)c1ccccc1 [Example 39, (R)-3-(3-(3-methyl-3-phenylureido)piperidin-1-yl)-5-(4-(morpholine-4-carbonyl)phenylamino)-1,2,4-triazine-6-carboxamide]",10 to 100,
"NC(=O)c1nnc(N2CCC[C@@H](NS(=O)(=O)c3ccccc3)C2)nc1Nc1ccc(C(=O)N2CCOCC2)cc1 [Example 41, (R)-5-(4-(morpholine-4-carbonyl)phenylamino)-3-(3-(phenylsulfonamido)piperidin-1-yl)-1,2,4-triazine-6-carboxamide]",< 10,
"NC(=O)c1nnc(N2CCC[C@@H](n3ccc4cc(C5CC5)cc(F)c4c3=O)C2)nc1Nc1ccc(C(=O)N2CCOCC2)cc1 [Example 47, (R)-3-(3-(6-cyclopropyl-8-fluoro-1-oxoisoquinolin-2(1H)-yl)piperidin-1-yl)-5-(4-(morpholine-4-carbonyl)phenylamino)-1,2,4-triazine-6-carboxamide]",< 10,
"NC(=O)c1nnc(N2CCC[C@@H](Oc3nccc4cc(C5CC5)cc(F)c34)C2)nc1Nc1ccc(C(=O)N2CCOCC2)cc1 [Example 48, (R)-3-(3-(6-cyclopropyl-8-fluoroisoquinolin-1-yloxy)piperidin-1-yl)-5-(4-(morpholine-4-carbonyl)phenylamino)-1,2,4-triazine-6-carboxamide]",100 to 1000,
"CC(C)(C)c1ccc(C(=O)N[C@@H]2CCCN(c3nnc(C(N)=O)c(Nc4ccc(S(C)(=O)=O)cc4)n3)C2)cc1 [Example 55, (R)-3-(3-(4-tert-butylbenzamido)piperidin-1-yl)-5-(4-(methylsulfonyl)phenylamino)-1,2,4-triazine-6-carboxamide]",< 10,10 to 100
